In assay [1] the target is T1, human cloned 5-HT2B receptors (Homo sapiens, UniProt P41595).
T1 construct: expressed in transfected cells; host or cells: CHO-K1 cells
Briefly: Human cloned 5-HT2B cell-based functional assay (Fluo-4, CHO.K1 cells). Particulars: inhibition of 5-HT response, CHO.K1 cells expressing cloned 5-HT2B, Fluo-4 AM. As to the method:
The following describes an in vitro functional assay using human cloned 5-HT2B receptors to determine the ability of compounds to block the receptor. CHO.K1 cells expressing cloned 5-HT2B receptor were maintained In Ultra-CHO medium containing 400 μg/ml of G418, 100 U/ml penicillin, 100 μg/ml streptomycin, 2.5 μg/ml fungizone, in 95/5% O2/CO2 at 37° C. Ultra-CHO medium additionally supplemented with 1% foetal bovine serum was used when seeding the cells and removed after 5 hours. Cells were plated in Costar 96 well white, clear-bottomed plate at a density of 50,000 cells per well and incubated for at least 24 hours in 95/5% O2/CO2 at 37° C. before running the assay. Media was removed from the wells and 200 μl of 4 μM Fluo-4 AM added, this was incubated in a Wallace Victor 2V workstation at 37° C. for 30 minutes. The Fluo-4 AM was then removed from the wells, which were then washed twice with 200 μl of buffer (HBSS without calcium/magnesium/phenol red, 20 mM HEPES, 1 mM Ca^2+, 1 mM Mg^2+, 2.5 mM probenecid, pH to 7.4), 180 μl of buffer or test compound was added to the well and incubated for 30 minutes. The Victor 2V injectors were used to inject 20 μl of 5-HT after obtaining 10 0.1-second baseline readings at 535 nm, followed by 150 readings. All test compounds were aliquoted in 100% DMSO at 10 mM and diluted to 1 mM in 50% DMSO, subsequent dilutions were made using buffer. Buffer was also used to dilute the 5-HT. Data were analysed using Microsoft Excel and GraphPad Prism, with the latter used to produce sigmoidal dose-response curves for each compound. The compound concentration that inhibited the 5-HT response by 50% was taken (IC50-M), and the results are shown in Table 3, as pIC50, being the negative log (to the base 10) of the measured IC50 values.

Assay [2] has as its target T1, human cloned 5-HT2B receptors. In words: Human cloned 5-HT2B receptor binding assay ([3H]LSD, CHO-K1 membranes). Particulars: displacement of [3H]LSD (1 nM), read-out: 5-HT2B pKi (converted). As to the method: The binding affinity of the compounds for human cloned 5-HT2B receptors was determined using the following assay.
CHO-K1 cells expressing cloned 5-HT2B receptor were maintained in Ultra-CHO medium containing 400 μg/ml of G418, 100 U/ml penicillin, 100 μg/ml streptomycin, 2.5 μg/ml fungizone and 1% foetal bovine serum, in 95/5% O2/CO2 at 37° C. The cells were harvested using 0.25% trypsin and were centrifuged at 800 rpm for 8 minutes. The cells were homogenised in 50 mM HEPES buffer containing 1 mM disodium EDTA and 1 mM PMSF at pH 7.4, using a Dounce homogeniser (20 strokes). The homogenate was centrifuged at 2280 rpm (1000 g) and 4° C. for 10 minutes, after which the supernatant was removed by decanting. The pellet was re-homogenised as above, and the resulting supernatant removed and combined with that already obtained. The supernatant solution was then centrifuged at 18300 rpm (40000 g) for 10 minutes at 4° C. using a Sorvall centrifuge. The supernatant was removed, and the pellet was re-suspended in 50 mM buffer at pH 7.4 using a Ultra-turrax T25 Polytron, before centrifugation again at 40000 g as above. This wash procedure was repeated, after which the membrane preparation was stored at a concentration of 1 mg/ml at −80° C. until use.
The membranes were thawed rapidly and diluted in assay buffer containing Tris-HCl (50 mM, pH 7.4), ascorbic acid (0.1%) and calcium chloride (4 mM). The membranes were homogenised to resuspend them, prior to adding 10 or 15 μg of membranes to assay wells containing [^3H]LSD (1 nM), assay buffer (50 mM Tris, 4 mM calcium chloride and 0.1% ascorbic acid) containing pargyline (10 μM), and the test compounds (1×10^−10 to 1×10^−4M). Non specific binding was determined in the presence of 100 μM 5-HT. After 30 minutes incubation at 37° C., the assay mixture was filtered through a combination of GF-C and GF-B filters, pre-soaked in 1% polyethyleneimine, using a Brandel cell harvester, and were washed three times using 50 mM Tris-HCl. Radioactivity retained on the filters was determined by liquid scintillation counting. For each test compound, the concentration that inhibited binding of [3H]LSD by 50% was determined using curve fitting software (Prism). Kd values (concentration of LSD required to occupy 50% of the receptor binding sites at equilibrium) determined from saturation binding studies were then used to calculate inhibition dissociation constants (Ki) using the following equation: […]
This approach follows that set out in Kenakin, T.P. Pharmacologic analysis of drug-receptor interaction. Raven Press, New York, 2nd Edition.

Where only a bound is given, the exact number is not on record here.

T1 sequence (P41595 whole entry): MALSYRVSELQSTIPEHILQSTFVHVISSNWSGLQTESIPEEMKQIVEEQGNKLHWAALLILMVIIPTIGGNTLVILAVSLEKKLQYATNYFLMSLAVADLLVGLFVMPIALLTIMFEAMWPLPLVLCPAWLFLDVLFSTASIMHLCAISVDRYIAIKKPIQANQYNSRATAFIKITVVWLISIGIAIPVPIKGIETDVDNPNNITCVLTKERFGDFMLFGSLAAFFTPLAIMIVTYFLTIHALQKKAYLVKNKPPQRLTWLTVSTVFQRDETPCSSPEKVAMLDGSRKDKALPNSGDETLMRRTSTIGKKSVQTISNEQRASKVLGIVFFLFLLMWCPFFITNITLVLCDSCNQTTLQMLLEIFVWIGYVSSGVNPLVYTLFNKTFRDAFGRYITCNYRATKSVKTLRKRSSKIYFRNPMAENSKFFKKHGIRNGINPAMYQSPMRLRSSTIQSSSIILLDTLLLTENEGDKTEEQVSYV

For the molecule `Nc1nc(-c2cccc3ccccc23)co1` [Compound 1, 2-amino-4-(naphth-1-yl)oxazole], the 50% inhibitory concentration (IC50) in assay [1] was under 100 nM. Besides, in assay [2], the Ki was under 100 nM.
Take `Cc1ccc2ccccc2c1-c1coc(N)n1` [Compound 6, 2-amino-4-(2′-methylnaphth-1-yl)oxazole]: in assay [1], the IC50 was under 100 nM. In addition, the Ki in assay [2] was under 10 nM.
For the molecule `CC(C)c1nc(N)oc1-c1cccc2ccccc12` [Compound 7, 2-amino-4-isopropyl-5-(naphth-1-yl)oxazole], the IC50 in assay [1] was under 10 nM. In addition, the Ki in assay [2] was under 10 nM.
The molecule `COc1ccc2ccccc2c1-c1coc(N)n1` [Compound 17, 4-(2-methoxy-naphthalen-1-yl)-oxazol-2-ylamine] gave an IC50 in assay [1] of under 10 nM. In addition, the Ki in assay [2] was under 10 nM.
In assay [1], `CC(C)c1nc(N)oc1-c1ccc(F)c2ccccc12` [Compound 31, 2-amino-5-(4′-fluoronaphth-1-yl)-4-isopropyloxazole] gave a 50% inhibitory concentration (IC50) of under 10 nM. Besides, in assay [2], the Ki is under 10 nM.

The record behind these values is patent US7429607B2, “5-HT2B receptor antagonists” (Asterand UK Limited, priority 2002, dated 2008).
